Reference: ChEMBL document CHEMBL3797052 (Eur J Med Chem, 2016)

Tests used:
[1] = Antiproliferative activity against human OVCAR3 cells assessed as growth inhibition after 48 hrs by sulforhodamine B assay; assay type: functional; details: OVCAR-3, 48 h
[2] = Antiproliferative activity against human UACC62 cells assessed as cell growth at 10^-7 M after 48 hrs by sulforhodamine B assay; assay type: functional; details: UACC-62, 48 h, read-out: Activity
[3] = Antiproliferative activity against human UACC257 cells assessed as cell growth at 10^-7 M after 48 hrs by sulforhodamine B assay; assay type: functional; details: UACC-257, 48 h, read-out: Activity
MDA-MB-231 = assay: Antiproliferative activity against human MDA-MB-231 cells assessed as cell growth at 10^-8 M after 48 hrs by sulforhodamine B assay; assay type: functional; details: MDA-MB-231, 48 h, read-out: Activity
786-0 [4] = assay: Antiproliferative activity against human 786-0 cells assessed as cell growth at 10^-6 M after 48 hrs by sulforhodamine B assay; assay type: functional; details: 786-0, 48 h, read-out: Activity
[5] = Antiproliferative activity against human NCI-ADR-RES cells assessed as cell growth at 10^-8 M after 48 hrs by sulforhodamine B assay; assay type: functional; details: read-out: Activity
786-0 [6] = assay: Antiproliferative activity against human 786-0 cells assessed as cell growth at 10^-8 M after 48 hrs by sulforhodamine B assay; assay type: functional; details: 786-0, 48 h, read-out: Activity
[7] = Antiproliferative activity against human OVCAR8 cells assessed as cell growth at 10^-4 M after 48 hrs by sulforhodamine B assay; assay type: functional; details: OVCAR-8, 48 h, read-out: Activity
SK-MEL-5 = assay: Antiproliferative activity against human SK-MEL-5 cells assessed as cell growth at 10^-6 M after 48 hrs by sulforhodamine B assay; assay type: functional; details: SK-MEL-5, 48 h, read-out: Activity
[8] = Antiproliferative activity against human SNB75 cells assessed as cell growth at 10^-6 M after 48 hrs by sulforhodamine B assay; assay type: functional; details: SNB-75, 48 h, read-out: Activity
[9] = biological target: RAF proto-oncogene serine/threonine-protein kinase (Homo sapiens, UniProt P04049); assay: Inhibition of human C-RAF measured after 40 mins by scintillation counting
NCI-H23 = assay: Antiproliferative activity against human NCI-H23 cells assessed as cell growth at 10^-4 M after 48 hrs by sulforhodamine B assay; assay type: functional; details: NCI-H23, 48 h, read-out: Activity
HT-29 = assay: Antiproliferative activity against human HT-29 cells assessed as cell growth at 10^-4 M after 48 hrs by sulforhodamine B assay; assay type: functional; details: HT-29, 48 h, read-out: Activity
[10] = Antiproliferative activity against human MOLT4 cells assessed as cell growth at 10^-4 M after 48 hrs by sulforhodamine B assay; assay type: functional; details: MOLT-4, 48 h, read-out: Activity
[11] = Antiproliferative activity against human OVCAR4 cells assessed as cell growth at 10^-8 M after 48 hrs by sulforhodamine B assay; assay type: functional; details: OVCAR-4, 48 h, read-out: Activity
ACHN = assay: Antiproliferative activity against human ACHN cells assessed as cell growth at 10^-4 M after 48 hrs by sulforhodamine B assay; assay type: functional; details: read-out: Activity
[12] = Antiproliferative activity against human LOXIMVI cells assessed as growth inhibition after 48 hrs by sulforhodamine B assay; assay type: functional; details: LOX IMVI; for CC50: read-out: LC50 (the source's name)
Malme-3M = assay: Antiproliferative activity against human MALME-3M cells assessed as cell growth at 10^-6 M after 48 hrs by sulforhodamine B assay; assay type: functional; details: read-out: Activity
[13] = Antiproliferative activity against human HCT116 cells assessed as cell growth at 10^-4 M after 48 hrs by sulforhodamine B assay; assay type: functional; details: HCT-116, 48 h, read-out: Activity
[14] = Antiproliferative activity against human HOP92 cells assessed as cell growth at 10^-7 M after 48 hrs by sulforhodamine B assay; assay type: functional; details: HOP-92, 48 h, read-out: Activity
NCI-H460 = assay: Antiproliferative activity against human NCI-H460 cells assessed as cell growth at 10^-8 M after 48 hrs by sulforhodamine B assay; assay type: functional; details: NCI-H460, 48 h, read-out: Activity
[15] = Antiproliferative activity against human HCT15 cells assessed as cell growth at 10^-8 M after 48 hrs by sulforhodamine B assay; assay type: functional; details: HCT-15, 48 h, read-out: Activity
[16] = Antiproliferative activity against human HCC2998 cells assessed as cell growth at 10^-4 M after 48 hrs by sulforhodamine B assay; assay type: functional; details: HCC 2998, 48 h, read-out: Activity
[17] = Antiproliferative activity against human COLO205 cells assessed as cell growth at 10^-7 M after 48 hrs by sulforhodamine B assay; assay type: functional; details: COLO 205, 48 h, read-out: Activity
MCF7 [18] = assay: Antiproliferative activity against human MCF7 cells assessed as cell growth at 10^-8 M after 48 hrs by sulforhodamine B assay; assay type: functional; details: MCF7, 48 h, read-out: Activity
[19] = Antiproliferative activity against human HCT15 cells assessed as cell growth at 10^-7 M after 48 hrs by sulforhodamine B assay; assay type: functional; details: HCT-15, 48 h, read-out: Activity
M14 = assay: Antiproliferative activity against human M14 cells assessed as growth inhibition after 48 hrs by sulforhodamine B assay; assay type: functional; details: M14, 48 h; for CC50: read-out: LC50 (the source's name)
KM12 = assay: Antiproliferative activity against human KM12 cells assessed as cell growth at 10^-8 M after 48 hrs by sulforhodamine B assay; assay type: functional; details: KM12, 48 h, read-out: Activity
A498 = assay: Antiproliferative activity against human A498 cells assessed as cell growth at 10^-4 M after 48 hrs by sulforhodamine B assay; assay type: functional; details: A498, 48 h, read-out: Activity
NCI-H322M = assay: Antiproliferative activity against human NCI-H322M cells assessed as cell growth at 10^-6 M after 48 hrs by sulforhodamine B assay; assay type: functional; details: read-out: Activity
A549 = assay: Antiproliferative activity against human A549/ATCC cells assessed as cell growth at 10^-6 M after 48 hrs by sulforhodamine B assay; assay type: functional; details: A549, 48 h, read-out: Activity
NCI-H522 = assay: Antiproliferative activity against human NCI-H522 cells assessed as cell growth at 10^-6 M after 48 hrs by sulforhodamine B assay; assay type: functional; details: NCI-H522, 48 h, read-out: Activity
K562 = assay: Antiproliferative activity against human K562 cells assessed as growth inhibition after 48 hrs by sulforhodamine B assay; assay type: functional; details: K562, 48 h; for CC50: read-out: LC50 (the source's name)
MCF7 [20] = assay: Antiproliferative activity against human MCF7 cells assessed as cell growth at 10^-4 M after 48 hrs by sulforhodamine B assay; assay type: functional; details: MCF7, 48 h, read-out: Activity
[21] = Antiproliferative activity against human SF539 cells assessed as growth inhibition after 48 hrs by sulforhodamine B assay; assay type: functional; details: SF-539, 48 h
hERG (KCNH2) = hERG (KCNH2) (Homo sapiens, UniProt Q12809); assay: Inhibition of human ERG assessed as reduction in channel current at 100 uM by automated patch-clamp electrophysiology assay
Sequence of hERG (KCNH2) (Q12809 whole entry): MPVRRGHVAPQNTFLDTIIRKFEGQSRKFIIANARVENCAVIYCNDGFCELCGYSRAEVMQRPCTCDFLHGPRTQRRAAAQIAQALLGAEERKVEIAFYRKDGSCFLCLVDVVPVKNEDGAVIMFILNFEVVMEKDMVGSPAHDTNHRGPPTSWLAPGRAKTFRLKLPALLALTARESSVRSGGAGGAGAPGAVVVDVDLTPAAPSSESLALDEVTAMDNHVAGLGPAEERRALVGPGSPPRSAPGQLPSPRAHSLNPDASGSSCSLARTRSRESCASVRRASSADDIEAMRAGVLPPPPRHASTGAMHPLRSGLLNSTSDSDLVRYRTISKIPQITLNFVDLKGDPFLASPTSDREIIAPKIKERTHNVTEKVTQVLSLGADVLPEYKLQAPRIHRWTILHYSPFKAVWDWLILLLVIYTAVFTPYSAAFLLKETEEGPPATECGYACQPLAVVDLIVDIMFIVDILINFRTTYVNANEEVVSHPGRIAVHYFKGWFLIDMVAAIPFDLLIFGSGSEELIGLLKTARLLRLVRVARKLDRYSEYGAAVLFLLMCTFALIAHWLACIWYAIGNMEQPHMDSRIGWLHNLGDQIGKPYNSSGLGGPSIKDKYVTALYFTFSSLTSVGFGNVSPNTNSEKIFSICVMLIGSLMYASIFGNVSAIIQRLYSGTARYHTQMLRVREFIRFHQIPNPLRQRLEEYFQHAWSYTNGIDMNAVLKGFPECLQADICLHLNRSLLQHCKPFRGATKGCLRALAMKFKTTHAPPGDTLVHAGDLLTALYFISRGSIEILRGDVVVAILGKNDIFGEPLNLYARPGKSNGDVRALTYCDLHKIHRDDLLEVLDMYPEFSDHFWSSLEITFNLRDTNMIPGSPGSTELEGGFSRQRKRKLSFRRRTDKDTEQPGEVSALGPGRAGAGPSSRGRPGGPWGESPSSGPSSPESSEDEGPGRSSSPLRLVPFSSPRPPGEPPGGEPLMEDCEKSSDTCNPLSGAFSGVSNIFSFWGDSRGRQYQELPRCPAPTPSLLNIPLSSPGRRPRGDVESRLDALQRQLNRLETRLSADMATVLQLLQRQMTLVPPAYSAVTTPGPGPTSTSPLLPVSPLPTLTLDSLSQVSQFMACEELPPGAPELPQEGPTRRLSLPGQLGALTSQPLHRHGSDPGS

Sequence of RAF proto-oncogene serine/threonine-protein kinase (P04049 whole entry): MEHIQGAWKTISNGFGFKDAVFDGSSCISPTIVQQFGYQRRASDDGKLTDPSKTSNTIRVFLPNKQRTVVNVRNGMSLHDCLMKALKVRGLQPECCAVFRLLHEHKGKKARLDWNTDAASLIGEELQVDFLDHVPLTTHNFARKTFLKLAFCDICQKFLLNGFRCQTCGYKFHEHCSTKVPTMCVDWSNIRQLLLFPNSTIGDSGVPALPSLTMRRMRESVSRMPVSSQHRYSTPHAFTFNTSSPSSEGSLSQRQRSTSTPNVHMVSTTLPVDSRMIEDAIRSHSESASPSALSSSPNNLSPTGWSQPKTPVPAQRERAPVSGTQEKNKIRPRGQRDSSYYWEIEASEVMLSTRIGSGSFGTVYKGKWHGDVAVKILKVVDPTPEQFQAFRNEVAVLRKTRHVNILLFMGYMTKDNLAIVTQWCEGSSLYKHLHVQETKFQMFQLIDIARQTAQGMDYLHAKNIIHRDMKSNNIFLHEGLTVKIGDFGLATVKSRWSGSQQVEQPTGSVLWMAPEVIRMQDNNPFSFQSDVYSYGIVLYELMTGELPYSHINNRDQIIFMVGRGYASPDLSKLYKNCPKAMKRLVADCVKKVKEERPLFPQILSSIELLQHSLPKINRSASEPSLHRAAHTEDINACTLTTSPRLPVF

## CNC(=O)c1cc(Oc2ccc3nc(NC(=O)c4cc(C(F)(F)F)cc(C(F)(F)F)c4)sc3c2)ccn1
[1]
  GI50: 2.32 µM
  LC50: 32.3 µM
  TGI: 6.64 µM
[2]
  growth at 0.1 µM: 86%
[3]
  growth at 0.1 µM: 95%
MDA-MB-231
  growth at 0.01 µM: 108%
786-0 [4]
  growth at 1 µM: 91%
[5]
  growth at 0.01 µM: 102%
786-0 [6]
  growth at 0.01 µM: 98%
[7]
  growth at 100 µM: -61%
SK-MEL-5
  growth at 1 µM: 83%
[8]
  growth at 1 µM: 89%
[9]
  IC50: 0.695 µM
NCI-H23
  growth at 100 µM: -45%
HT-29
  growth at 100 µM: -51%
[10]
  growth at 100 µM: -7%
[11]
  growth at 0.01 µM: 95%
ACHN
  growth at 100 µM: -82%
[12]
  GI50: 3.39 µM
  TGI: 15.1 µM
  CC50: 97.5 µM
Malme-3M
  growth at 1 µM: 80%
[13]
  growth at 100 µM: -84%
[14]
  growth at 0.1 µM: 86%
NCI-H460
  growth at 0.01 µM: 99%
[15]
  growth at 0.01 µM: 104%
[16]
  growth at 100 µM: -60%
[17]
  growth at 0.1 µM: 91%
MCF7 [18]
  growth at 0.01 µM: 93%
[19]
  growth at 0.1 µM: 96%
M14
  GI50: 3.61 µM
  TGI: 19.5 µM
  CC50: > 100 µM
KM12
  growth at 0.01 µM: 101%
A498
  growth at 100 µM: -65%
NCI-H322M
  growth at 1 µM: 52%
A549
  growth at 1 µM: 105%
NCI-H522
  growth at 1 µM: 96%
K562
  GI50: 3.53 µM
  TGI: > 100 µM
  CC50: > 100 µM
MCF7 [20]
  growth at 100 µM: -49%
[21]
  GI50: 3.14 µM
  LC50: 71.1 µM
  TGI: 14.8 µM

## CNC(=O)c1cc(Oc2ccc3nc(NC(=O)Nc4ccc(Cl)c(Cl)c4)sc3c2)ccn1
[1]
  GI50: 2.3 µM
  LC50: > 100 µM
  TGI: 5.38 µM
[2]
  growth at 0.1 µM: 95%
[3]
  growth at 0.1 µM: 92%
MDA-MB-231
  growth at 0.01 µM: 89%
786-0 [4]
  growth at 1 µM: 100%
[5]
  growth at 0.01 µM: 97%
786-0 [6]
  growth at 0.01 µM: 95%
[7]
  growth at 100 µM: -52%
SK-MEL-5
  growth at 1 µM: 94%
[8]
  growth at 1 µM: 87%
[9]
  IC50: 0.015 µM
NCI-H23
  growth at 100 µM: 6%
HT-29
  growth at 100 µM: -49%
[10]
  growth at 100 µM: 78%
[11]
  growth at 0.01 µM: 93%
hERG (KCNH2)
  inhibition at 100 µM: 47.9%
ACHN
  growth at 100 µM: -18%
[12]
  GI50: 1.82 µM
  TGI: 3.52 µM
  CC50: 6.82 µM
Malme-3M
  growth at 1 µM: 76%
[13]
  growth at 100 µM: -54%
[14]
  growth at 0.1 µM: 110%
NCI-H460
  growth at 0.01 µM: 104%
[15]
  growth at 0.01 µM: 89%
[16]
  growth at 100 µM: 37%
[17]
  growth at 0.1 µM: 105%
MCF7 [18]
  growth at 0.01 µM: 87%
[19]
  growth at 0.1 µM: 97%
M14
  GI50: 2.13 µM
  TGI: 4.74 µM
  CC50: > 100 µM
KM12
  growth at 0.01 µM: 98%
A498
  growth at 100 µM: -42%
NCI-H322M
  growth at 1 µM: 84%
A549
  growth at 1 µM: 93%
NCI-H522
  growth at 1 µM: 97%
K562
  GI50: > 100 µM
  TGI: > 100 µM
  CC50: > 100 µM
MCF7 [20]
  growth at 100 µM: 7%
[21]
  GI50: 2.17 µM
  LC50: 11.1 µM
  TGI: 4.69 µM
